Target: Vent(exo-) DNA polymerase (Thermococcus litoralis, UniProt P30317, D141A/E143A)
Settings: natural primer/template PA/T0, 40 °C, supplied reaction buffer, dATP 10–800 μM

Km: 5.52 µM
SMILES: Nc1ncnc2c1ncn2[C@H]1C[C@H](O)[C@@H](COP(=O)(O)OP(=O)(O)OP(=O)(O)O)O1 [dATP]

Source: article PMC1636466 (Nucleic Acids Research, 2006)
